Measured values taken from US9434743B2, “Indazole derivatives” (TAKEDA PHARMACEUTICAL COMPANY LIMITED, priority 2012, dated 2016).

Assays:
human MetAP2 enzyme [1] = target: T1, human MetAP2 enzyme (Homo sapiens, UniProt P50579); test: MetAP2 enzyme assay, enzyme complexed with manganese ions; conditions: MetAP2 Mn pIC50, MetAP2 enzyme complexed with manganese ions; Met-AMC substrate at Km
human MetAP2 enzyme [2] = target: T1, human MetAP2 enzyme; test: MetAP2 enzyme assay, enzyme complexed with cobalt ions; conditions: MetAP2 Co pIC50, MetAP2 enzyme complexed with cobalt ions; Met-AMC substrate at Km

T1 sequence (P50579 whole entry): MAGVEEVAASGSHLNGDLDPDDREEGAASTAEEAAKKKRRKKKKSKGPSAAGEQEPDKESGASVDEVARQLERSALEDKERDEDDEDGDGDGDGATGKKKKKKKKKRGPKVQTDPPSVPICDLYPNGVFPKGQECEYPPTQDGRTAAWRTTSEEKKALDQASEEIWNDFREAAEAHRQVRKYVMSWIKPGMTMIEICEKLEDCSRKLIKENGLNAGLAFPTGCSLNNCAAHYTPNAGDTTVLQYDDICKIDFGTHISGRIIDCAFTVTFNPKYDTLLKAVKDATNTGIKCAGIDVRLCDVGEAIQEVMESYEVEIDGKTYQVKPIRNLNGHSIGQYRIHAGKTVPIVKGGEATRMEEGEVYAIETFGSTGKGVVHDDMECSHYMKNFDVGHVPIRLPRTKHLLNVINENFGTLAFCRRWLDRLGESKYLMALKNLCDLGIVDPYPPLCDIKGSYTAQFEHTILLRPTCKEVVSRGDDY

SMILES	IC50 (human MetAP2 enzyme [1])	IC50 (human MetAP2 enzyme [2])
Fc1cnc2[nH]ccc2c1-c1cc(C(F)(F)F)cc2[nH]ncc12 [Example 66, 4-(5-fluoro-1H-pyrrolo[2,3-b]pyridin-4-yl)-6-(trifluoromethyl)-1H-indazole]	0.0158 µM	0.0794 µM
FC(F)(F)c1cc(-c2ccc3[nH]ncc3c2)c2cn[nH]c2c1 [Example 236, 6-(trifluoromethyl)-1H,1′H-4,5′-biindazole]	0.00631 µM	0.0631 µM
CS(=O)(=O)NCc1ccc(-c2cc(C(F)(F)F)cc3[nH]ncc23)cc1 [Example 95, N-(4-(6-(trifluoromethyl)-1H-indazol-4-yl)benzyl)methanesulfonamide]	0.00316 µM	0.02 µM
COc1ccc(CC(=O)N2CCOCC2)cc1-c1cc(C(F)(F)F)cc2[nH]ncc12 [Example 316, 2-(4-methoxy-3-(6-(trifluoromethyl)-1H-indazol-4-yl)phenyl)-1-morpholinoethanone]	0.01 µM	0.0501 µM
C[C@H](O)CNC(=O)c1c[nH]c(=O)c(-c2cc(C(F)(F)F)cc3[nH]ncc23)c1 [Example 335, (S)—N-(2-hydroxypropyl)-6-oxo-5-(6-(trifluoromethyl)-1H-indazol-4-yl)-1,6-dihydropyridine-3-carboxamide]	0.0158 µM	0.631 µM
Cc1nn(C)c(C)c1-c1cc(C(F)(F)F)cc2[nH]ncc12 [Example 164, 6-(trifluoromethyl)-4-(1,3,5-trimethyl-1H-pyrazol-4-yl)-1H-indazole]	0.00398 µM	0.0158 µM
O=C1CNc2ncc(-c3cc(C(F)(F)F)cc4[nH]ncc34)cc2N1 [Example 244, 7-(6-(trifluoromethyl)-1H-indazol-4-yl)-3,4-dihydropyrido[2,3-b]pyrazin-2(1H)-one]	0.00501 µM	0.0316 µM
O=C(NCCO)c1ncc(-c2cc(C(F)(F)F)cc3[nH]ncc23)cn1 [Example 286, N-(2-hydroxyethyl)-5-(6-(trifluoromethyl)-1H-indazol-4-yl)pyrimidine-2-carboxamide]	0.00794 µM	0.2 µM

Continued, values first:

IC50 (human MetAP2 enzyme [1])	IC50 (human MetAP2 enzyme [2])	SMILES
0.0251 µM	0.1 µM	CCCOc1ncccc1-c1cc(C(F)(F)F)cc2[nH]ncc12 [Example 134, 4-(2-propoxypyridin-3-yl)-6-(trifluoromethyl)-1H-indazole]
0.00631 µM	0.0794 µM	Cn1ccc2c(-c3cc(C(F)(F)F)cc4[nH]ncc34)cccc21 [Example 77, 4-(1-methyl-1H-indol-4-yl)-6-(trifluoromethyl)-1H-indazole]
0.0126 µM	0.631 µM	Oc1ncccc1-c1cc(C(F)(F)F)cc2[nH]ncc12 [Example 210, 3-(6-(trifluoromethyl)-1H-indazol-4-yl)pyridin-2-ol]
0.00398 µM	0.0501 µM	CN(C)c1ncc(-c2cc(C(F)(F)F)cc3[nH]ncc23)cn1 [Example 247, N,N-dimethyl-5-(6-(trifluoromethyl)-1H-indazol-4-yl)pyrimidin-2-amine]
0.00631 µM	0.0631 µM	Cc1cnc(N)c(-c2cc(C(F)(F)F)cc3[nH]ncc23)c1 [Example 193, 5-methyl-3-(6-(trifluoromethyl)-1H-indazol-4-yl)pyridin-2-amine]
0.0398 µM	0.316 µM	CN(C)S(=O)(=O)c1ccccc1-c1cc(C(F)(F)F)cc2[nH]ncc12 [Example 183, N,N-dimethyl-2-(6-(trifluoromethyl)-1H-indazol-4-yl)benzenesulfonamide]
0.631 µM	3.98 µM	CCOCn1ccnc1-c1cc(C(F)(F)F)cc2[nH]ncc12 [Example 145, 4-(1-(ethoxymethyl)-1H-imidazol-2-yl)-6-(trifluoromethyl)-1H-indazole]
0.00251 µM	0.0501 µM	CNC(=O)c1ccc(-c2cc(C(F)(F)F)cc3[nH]ncc23)cn1 [Example 97, N-methyl-5-(6-(trifluoromethyl)-1H-indazol-4-yl)picolinamide]
0.00398 µM	0.126 µM	Cc1c(-c2cc(C(F)(F)F)cc3[nH]ncc23)ccc2nnnn12 [Example 398, 5-methyl-6-(6-(trifluoromethyl)-1H-indazol-4-yl)tetrazolo[1,5-a]pyridine]
